target: T1, neutrophil elastase (Homo sapiens, UniProt P08246); experiment: Human Neutrophil Elastase Assay; assay type: biochemical; parameters: purchased Calbiochem 324681; conditions: substrate MeOSuc-Ala-Ala-Pro-Val-AMC, pH 7.5, room temperature
T1 sequence (P08246 30-247 limits assumed): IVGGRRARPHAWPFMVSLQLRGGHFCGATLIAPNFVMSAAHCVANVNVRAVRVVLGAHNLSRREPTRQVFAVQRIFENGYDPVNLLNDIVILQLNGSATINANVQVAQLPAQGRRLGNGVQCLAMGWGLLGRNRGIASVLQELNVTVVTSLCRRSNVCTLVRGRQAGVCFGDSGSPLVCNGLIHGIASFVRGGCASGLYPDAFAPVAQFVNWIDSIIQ
Protocol: Human Neutrophil Elastase Assay
Materials: Human neutrophil elastase was purchased from Calbiochem (Cat.No.: 324681) and the elastase substrate MeOSuc-Ala-Ala-Pro-Val-AMC from Bachem (Cat.No.: I-1270). All other materials were of the highest grade commercially available.
The following buffers were used: Compound buffer: 100 mM Tris, 500 mM NaCl, adjusted to pH 7.5; Assay buffer: 100 mM Tris, 500 mM NaCl, adjusted to pH 7.5, containing 0.01% BSA.
Assay conditions: Test compounds were prediluted in DMSO and subsequently in compound buffer (5% DMSO final). 5 μL of these compound dilutions were mixed with 10 μl Neutrophil elastase (9 ng/ml in assay buffer) in a black 384 well OptiPlate (Perkin Elmer, Cat No.: 6007270) and incubated for 15 min at room temperature. Subsequently 10 μL substrate solution in assay buffer were added (250 nM final concentration) and the plates were incubated for 60 min at room temperature. After inactivation of the enzyme, fluorescence intensities were measured at 380 nm excitation and 460 nm emission wavelengths.
Each plate contains wells with a high value control (DMSO+enzyme+substrate) and wells with a low value control (DMSO+inactivated enzyme+substrate). IC50 values were estimated using a sigmoidal concentration response curve with variable slope. Means of low values were taken as 0%, means of high values as 100%.

IC50 | Compound
16.9 nM | CN1CCC(NC(=O)CN2C(=O)N(c3cccc(C(F)(F)F)c3)C3=C(C(=O)CCC3)C2c2ccc(C#N)cc2)CC1 (centres unmarked) [Example 36.38]
2.6 nM | N#Cc1ccc(C2C3=C(CCCC3=O)N(c3cccc(C(F)(F)F)c3)C(=O)N2CC(=O)N2CCn3cncc3C2)cc1 (centres unmarked) [Example 36.49]
13.5 nM | COCCNC(=O)CN1C(=O)N(c2cccc(C(F)(F)F)c2)C2=C(C(=O)CCC2)C1c1ccc(C#N)cc1 (centres unmarked) [Example 36.5]
17.5 nM | N#Cc1ccc(C2C3=C(CCCC3=O)N(c3cccc(C(F)(F)F)c3)C(=O)N2CC(=O)NCc2ccco2)cc1 (centres unmarked) [Example 36.15]
2.2 nM | N#Cc1ccc(C2C3=C(CCCC3=O)N(c3cccc(C(F)(F)F)c3)C(=O)N2CC(=O)N2CCc3[nH]c(=O)ccc3C2)cc1 (centres unmarked) [Example 36.71]
27.3 nM | COC(=O)c1cc(S(=O)(=O)N2C(=O)N(c3cccc(C(F)(F)F)c3)C3=C(C(=O)CCC3)C2c2ccc(C#N)cc2)oc1C (centres unmarked) [Example 44.13]
34.9 nM | N#Cc1ccc(C2C3=C(CCCC3=O)N(c3cccc(C(F)(F)F)c3)C(=O)N2S(=O)(=O)c2ccccc2)cc1 (centres unmarked) [Example 44.5]
9 nM | N#Cc1ccc(C2C3=C(CCCC3=O)N(c3cccc(C(F)(F)F)c3)C(=O)N2S(=O)(=O)Cc2ccccc2)cc1 (centres unmarked) [Example 44.8]
1.7 nM | N#Cc1ccc(C2C3=C(CCCC3=O)N(c3ccnc(C(F)(F)F)c3)C(=O)N2C(=O)NC2CC2)cc1 (centres unmarked) [Example 76, 4-(4-Cyanophenyl)-N-cyclopropyl-2,5-dioxo-1-(2-(trifluoromethyl)pyridin-4-yl)-1,2,5,6,7,8-hexahydroquinazoline-3(4H)-carboxamide]
5.1 nM | CCS(=O)(=O)N1C(=O)N(c2cccc(C(F)(F)F)c2)C2=C(C(=O)CCC2)C1c1ccc(C#N)cc1 (centres unmarked) [Example 44.1]
3.1 nM | CN(C(=O)CN1C(=O)N(c2cccc(C(F)(F)F)c2)C2=C(C(=O)CCC2)C1c1ccc(C#N)cc1)C1CCS(=O)(=O)C1 (centres unmarked) [Example 36.69]
19.4 nM | CCCCN1C(=O)N(c2cccc(C(F)(F)F)c2)C2=C(C(=O)CCC2)C1c1ccc(C#N)cc1 (centres unmarked) [Example 21, 4-(3-Butyl-1-(3-(trifluoromethyl)phenyl)-2,5-dioxo-1,2,3,4,5,6,7,8-octahydroquinazolin-4-yl)benzonitrile]
1.3 nM | CCN1C(=O)N(c2cccc(C(F)(F)F)c2)C2=C(C(=O)CCC2)C1c1ccc(C#N)cc1S(C)(=O)=O (centres unmarked) [Example 58, 4-(3-Ethyl-2,5-dioxo-1-(3-(trifluoromethyl)phenyl)-1,2,3,4,5,6,7,8-octahydroquinazolin-4-yl)-3-(methylsulfonyl)benzonitrile]
6.7 nM | CS(=O)(=O)N1C(=O)N(c2cccc(C(F)(F)F)c2)C2=C(C(=O)CCC2)C1c1ccc(C#N)cc1Cl (centres unmarked) [Example 67, 3-Chloro-4-(3-(methylsulfonyl)-2,5-dioxo-1-(3-(trifluoromethyl)phenyl)-1,2,3,4,5,6,7,8-octahydroquinazolin-4-yl)benzonitrile]
17.1 nM | Cn1ccc(CNC(=O)CN2C(=O)N(c3cccc(C(F)(F)F)c3)C3=C(C(=O)CCC3)C2c2ccc(C#N)cc2)n1 (centres unmarked) [Example 36.33]
< 1 nM | CS(=O)(=O)c1ccc(CNC(=O)N2C(=O)N(c3cccc(C(F)(F)F)c3)C3=C(C(=O)CCC3)C2c2ccc(C#N)cc2)cc1 (centres unmarked) [Example 37, 4-(4-Cyanophenyl)-N-(4-(methylsulfonyl)benzyl)-2,5-dioxo-1-(3-(trifluoromethyl)-phenyl)-1,2,5,6,7,8-hexahydroquinazoline-3(4H)-carboxamide]
4 nM | CC1CN(C(=O)CN2C(=O)N(c3cccc(C(F)(F)F)c3)C3=C(C(=O)CCC3)C2c2ccc(C#N)cc2)CC1C (centres unmarked) [Example 36.18]
1.3 nM | CN1C(=O)N(c2cccc(C(F)F)c2)C2=C(C(=O)CCC2)C1c1ccc(C#N)cc1S(C)(=O)=O (centres unmarked) [Example 49, 4-(1-(3-(Difluoromethyl)phenyl)-3-methyl-2,5-dioxo-1,2,3,4,5,6,7,8-octahydroquinazolin-4-yl)-3-(methylsulfonyl)benzonitrile]
22.3 nM | N#Cc1ccc(C2C3=C(CCCC3=O)N(c3cccc(C(F)(F)F)c3)C(=O)N2S(=O)(=O)c2cccnc2)cc1 (centres unmarked) [Example 44.6]
13.9 nM | N#Cc1ccc(C2C3=C(CCCC3=O)N(c3cccc(C(F)(F)F)c3)C(=O)N2CC(=O)NCCN2CCOCC2)cc1 (centres unmarked) [Example 36.63]
< 1 nM | CS(=O)(=O)c1cc(C#N)ccc1C1C2=C(CCCC2=O)N(c2cccc(C(F)(F)F)c2)C(=O)N1C(=O)NCCO (centres unmarked) [Example 47.2]
4.4 nM | CNC(=O)N1C(=O)N(c2ccnc(C(F)(F)F)c2)C2=C(C(=O)CCC2)C1c1ccc(C#N)cc1 (centres unmarked) [Example 76.1]

IC50 | Compound
43.4 nM | N#Cc1ccc(C2NC(=O)N(c3cccc(C(F)(F)F)c3)C3=C2C(=O)CC(C(N)=O)C3)cc1 (centres unmarked) [Example 12, 4-(4-Cyanophenyl)-2,5-dioxo-1-(3-(trifluoromethyl)phenyl)-1,2,3,4,5,6,7,8-octahydroquinazoline-7-carboxamide]
< 1 nM | N#Cc1ccc(C2C3=C(CCCC3=O)N(c3cccc(C(F)(F)F)c3)C(=O)N2C(=O)NC2CCOCC2)cc1 (centres unmarked) [Example 70.14]
63.3 nM | N#Cc1ccc(C2C3=C(CCCC3=O)N(c3cccc(C(F)(F)F)c3)C(=O)N2C(=O)N2CCOCC2)cc1 (centres unmarked) [Example 39.7]
< 1 nM | N#Cc1ccc(C2C3=C(CCCC3=O)N(c3cccc(C(F)(F)F)c3)C(=O)N2C(=O)NCC2CCC(=O)N2)cc1 (centres unmarked) [Example 39.17]
11.4 nM | N#Cc1ccc(C2C3=C(CCCC3=O)N(c3cccc(C(F)(F)F)c3)C(=O)N2S(=O)(=O)c2ccccc2C#N)cc1 (centres unmarked) [Example 44.11]
2.1 nM | N#Cc1ccc(C2C3=C(CCCC3=O)N(c3cccc(C(F)(F)F)c3)C(=O)N2CC(=O)N2CCC3(CC2)CNC(=O)O3)cc1 (centres unmarked) [Example 36.74]
2.4 nM | CS(=O)(=O)N1CCN(C(=O)CN2C(=O)N(c3cccc(C(F)(F)F)c3)C3=C(C(=O)CCC3)C2c2ccc(C#N)cc2)CC1 (centres unmarked) [Example 36.75]
< 1 nM | CS(=O)(=O)c1cc(C#N)ccc1C1C2=C(CCCC2=O)N(c2cccc(C(F)(F)F)c2)C(=O)N1C(=O)NCCCO (centres unmarked) [Example 47.3]
20.8 nM | N#Cc1ccc(C2C3=C(CCCC3=O)N(c3cccc(C(F)(F)F)c3)C(=O)N2CC(=O)NCC2CC2)cc1 (centres unmarked) [Example 36.3]
1 nM | COCCNC(=O)N1C(=O)N(c2cccc(C(F)(F)F)c2)C2=C(C(=O)CCC2)C1c1ccc(C#N)cc1 (centres unmarked) [Example 39, 4-(4-Cyanophenyl)-N-(2-methoxyethyl)-2,5-dioxo-1-(3-(trifluoromethyl)phenyl)-1,2,5,6,7,8-hexahydroquinazoline-3(4H)-carboxamide]
34 nM | N#Cc1ccc(C2NC(=O)N(c3cccc(C(F)(F)F)c3)C3=C2C(=O)CCC3)c(Cl)c1 (centres unmarked) [Example 56, 3-Chloro-4-(2,5-dioxo-1-(3-(trifluoromethyl)phenyl)-1,2,3,4,5,6,7,8-octahydroquinazolin-4-yl)benzonitrile]
34 nM | COc1cc(C#N)ccc1C1NC(=O)N(c2cccc(C(F)(F)F)c2)C2=C1C(=O)CCC2 (centres unmarked) [Example 53, 4-(2,5-Dioxo-1-(3-(trifluoromethyl)phenyl)-1,2,3,4,5,6,7,8-octahydroquinazolin-4-yl)-3-methoxybenzonitrile]
9.1 nM | COCCOC(=O)N1C(=O)N(c2cccc(C(F)(F)F)c2)C2=C(C(=O)CCC2)C1c1ccc(C#N)cc1 (centres unmarked) [Example 41, 2-Methoxyethyl 4-(4-Cyanophenyl)-2,5-dioxo-1-(3-(trifluoromethyl)phenyl)-1,2,5,6,7,8-hexahydroquinazoline-3(4H)-carboxylate]
10.7 nM | N#Cc1ccc(C2C3=C(CCCC3=O)N(c3cccc(C(F)(F)F)c3)C(=O)N2CC(=O)N2CCC3(CC2)CC3)cc1 (centres unmarked) [Example 36.34]
23.2 nM | CN(C)CCN(C)C(=O)N1C(=O)N(c2cccc(C(F)(F)F)c2)C2=C(C(=O)CCC2)C1c1ccc(C#N)cc1 (centres unmarked) [Example 39.11]
2.1 nM | N#Cc1ccc(C2C3=C(CCCC3=O)N(c3cccc(C(F)(F)F)c3)C(=O)N2C(=O)NCC2(O)CCC2)cc1 (centres unmarked) [Example 70.13]
5.8 nM | CN1CCC2(CCN(C(=O)CN3C(=O)N(c4cccc(C(F)(F)F)c4)C4=C(C(=O)CCC4)C3c3ccc(C#N)cc3)C2)C1 (centres unmarked) [Example 36.66]
10.2 nM | CC1CCN(C(=O)CN2C(=O)N(c3cccc(C(F)(F)F)c3)C3=C(C(=O)CCC3)C2c2ccc(C#N)cc2)CC1 (centres unmarked) [Example 36.19]
1.7 nM | N#Cc1ccc(C2C3=C(CCCC3=O)N(c3cccc(C(F)(F)F)c3)C(=O)N2CC(=O)N2CCn3nccc3C2)cc1 (centres unmarked) [Example 36.51]
19.3 nM | N#Cc1ccc(C2NC(=O)N(c3ccc(F)c(C(F)(F)F)c3)C3=C2C(=O)CCC3)cc1 (centres unmarked) [Example 52.1]
2.9 nM | CN(Cc1cnn(C)c1)C(=O)CN1C(=O)N(c2cccc(C(F)(F)F)c2)C2=C(C(=O)CCC2)C1c1ccc(C#N)cc1 (centres unmarked) [Example 36.54]
9.3 nM | N#Cc1ccc(C2C3=C(CCCC3=O)N(c3cccc(C(F)(F)F)c3)C(=O)N2CC(=O)N2Cc3ccccc3C2)cc1 (centres unmarked) [Example 36.44]

Source: patent US9115093B2, “Substituted bicyclic dihydropyrimidinones and their use as inhibitors of neutrophil elastase activity” (Boehringer Ingelheim International GmbH, priority 2013, dated 2015)
